This is an account of results in patent publication US20240182603A1, “SULFUR-S[…] TO STABILIZE OLIGOSACCHARIDE” (Brandeis University, priority 2021, published 2024).

The assay deals with HIV broadly neutralizing antibody 2G12. In words: STD-NMR (Saturation Transfer Difference NMR) binding analysis with 2G12 IgG. The settings on record: for mannose unit showing greatest saturation transfer (STD): pH 6.7 deuterated phosphate buffered saline, saturation time 3 s; for recognition by neutralizing HIV antibody 2G12: summary in Discussion, contacts similar to natural oligomannose. On the procedure:
With these S-Man3 and S-Man4 derivatives in hand, their recognition by HIV broadly neutralizing antibody 2G12 was studied. 2G12 binds primarily to the linear trimannose (D1) arm of Man9GlcNAc2. […] The temperature was 298 K for S-Man3 14 and 293 K for S-Man4 21 in order to move the HDO peak to avoid covering an anomeric resonance. The experiments were performed without suppression of the residual HDO signal. On-resonance frequencies of 0.86 ppm δ (protein aliphatic) and 7 ppm δ (protein aromatic) were applied for S-Man3 14 and […] S-Man4 21, respectively, in both cases with a saturation time of 3 s and an off-resonance frequency of 40 ppm δ.
In the case of the Man4 derivative, negligible STD is observed for the reducing-terminal mannose unit.

Setting [1] is: 25 μM 2G12 IgG, 200:1 sugar:antibody.

In the case of `NCCO[C@H]1O[C@H](CO)[C@@H](O)[C@H](O)[C@@H]1S[C@H]1O[C@H](CO)[C@@H](O)[C@H](O)[C@@H]1O[C@H]1O[C@H](CO)[C@@H](O)[C@H](O)[C@@H]1O` [compound 14, 2-aminoethyl-[α-D-mannopyranosyl-(1→2)-2-S-{α-D-mannopyranosyl-(1→2)}]-α-D-mannopyranoside], the “recognition by neutralizing HIV antibody 2G12” value was “recognized”. In addition, the “mannose unit showing greatest saturation transfer (STD)” value under setting [1] is on record as “greatest saturation transfer is seen for the non-reducing mannose unit”.
Consider `[N-]=[N+]=NC1CCC(O[C@@H]2OC(CO)[C@@H](O)[C@H](O[C@H]3OC(CO)[C@@H](O)[C@H](O)C3O[C@H]3OC(CO)[C@@H](O)[C@H](O)C3S[C@H]3OC(CO)[C@@H](O)[C@H](O)C3O)C2O)CC1` (stereo partly drawn) [compound 21, Trans-azidocyclohexyl-3-O-[{α-D-mannopyranosyl-(1→2)}-2-O-{α-D-mannopyranosyl-(1→2)}-2-S-{α-D-mannopyranosyl-(1→2)}]-β-D-mannopyranoside], for which the “recognition by neutralizing HIV antibody 2G12” value is “recognized”. Moreover, where the note is “25 μM 2G12 IgG, 200:1 sugar:antibody, 293 K”, the “STD observed for the reducing-terminal mannose unit” value was “negligible”. Moreover, the “mannose unit showing greatest saturation transfer (STD)” value under setting [1] is “greatest saturation transfer is seen for the non-reducing mannose unit”.
